# Measurements taken from US11633551B2, “Gaseous nitric oxide delivery system and methods of use” (Hansen Pharmaceutical, LLC, priority 2014, dated 2023).
# Values joined by “and” are separate entries in the source; they are usually repeats but may differ in a detail not shown here. Equal values may be shown once.
# What was measured:
# Format in all cases: cell-based
# [1] = tested on: Acinetobacter baumannii (ATCC #BAA-747); assay: Skin sample infection assay, 3 hours infection, bioburden after gNO; details: 1% gNO at 1 ATM (14.695 psi) for 90 minutes, flow rate 0.1 liters/minute; skin samples infected for 3 hours; FIG. 4
# Method: (§1) FIG. 4 is a graph illustrating the effects of NO treatment on bioburden using an infection assay, after three hours of infection, according to an embodiment of the present disclosure. Skin samples infected for 3 hours with Staphylococcus, MRSA, Acinetobacter or Pseudomonas and subsequently exposed to 1% gNO at 1 ATM (14.695 psi) for 90 minutes at a flow rate of 0.1 liters/minute. Staphylococcus aureus, subspecies aureus Rosenbach (ATCC #12600); Staphylococcus aureus, subspecies aureus Rosenbach (ATCC #33591), methicillin-resistant strain of Staphylococcus aureus, phage type 92; Acinetobacter baumannii (ATCC #BAA-747); and Pseudomonas aeruginosa (ATTC #BAA-47). Control=infected, untreated tissue. Three sets of triplicates were performed per experiment.
# [2] = tested on: MRSA, methicillin-resistant strain of Staphylococcus aureus (ATCC #33591); assay: as above; details: 1% gNO at 1 ATM (14.695 psi) for 90 minutes, flow rate 0.1 liters/minute; skin samples infected for 3 hours; FIG. 4
# Method: as §1
# [3] = tested on: Pseudomonas aeruginosa (ATTC #BAA-47); assay: as above; details: 1% gNO at 1 ATM (14.695 psi) for 90 minutes, flow rate 0.1 liters/minute; skin samples infected for 3 hours; FIG. 4
# Method: as §1
# [4] = tested on: Staphylococcus aureus, subspecies aureus Rosenbach (ATCC #12600); assay: as above; details: 1% gNO at 1 ATM (14.695 psi) for 90 minutes, flow rate 0.1 liters/minute; skin samples infected for 3 hours; FIG. 4
# Method: as §1
# S. aureus = assay: Colony counts after pressurized gNO, 24 hours infection, Franz cell (3-Ring) or Leg Device; details: 1% gNO after 24 hours of infection
# Method: Experiments were also conducted to determine the infection-reducing capability of gNO administration at various pressures below 1.0 ATM (14.695 psi) (independent of and in addition to the pressure applied by the external environment) using both a Franz cell tissue culture device (i.e., 3-Ring) and a portable gNO deliver device (i.e., Leg Device). The results of one set of experiments are illustrated below in Table 1. gNO was administered at a 1% concentration after 24 hours of infection with S. aureus. Flow Rates (cm^3/min or cc) varied from about 100 to about 1500, Purge Flow (liters/min or LPM) varied from about 0.1 to about 1.5, and gNO Exposure Time varied between about 45 minutes to about 105 minutes among the different treatment groups and controls. Colony counts (log CFU) were performed at various dilutions, which are represented in the last eight columns labeled 0, 1×10^−1 through 1×10^−7 (“0” indicates no dilution).
# cells = assay: MTT assay of cell viability after gNO administration; details: pressurized gNO at about 0.15 ATM (2.2 psi) for about 105 minutes
# Method: Additionally, MTT assays were performed to assess cell viability after gNO administration. MTT assays are colorimetric-based assays used to assess cell viability as a function of color variation. As illustrated below in Table 2, cell viability after the administration of pressurized gNO at about 0.15 ATM (2.2 psi) for about 105 minutes varied from about 40%-50%.
# [5] = Trial 0.15 ATM, 3-Ring, purge flow 0.1 LPM, flow rate 100 cc, 0.15 ATM, 105 min
# [6] = Trial 0.25 ATM, 3-Ring, purge flow 0.1 LPM, flow rate 100 cc, 0.25 ATM, 90 min
# [7] = Trial 0.5 ATM, 3-Ring, purge flow 0.1 LPM, flow rate 100 cc, 0.5 ATM, 90 min
# [8] = Trial 0.5 ATM, Leg Device, purge flow 1.0 LPM, flow rate 500 cc, 0.5 ATM, 45 min
# [9] = Trial 9 attempt, 3-Ring, purge flow 0.1 LPM, flow rate 100 cc, 0.25 ATM, 90 min
# [10] = Trial Calf, Leg Device, purge flow 0.1 LPM, flow rate 100 cc, 0.5 ATM, 90 min
# [11] = Trial Heel, Leg Device, purge flow 0.1 LPM, flow rate 100 cc, 0.5 ATM, 90 min
# [12] = Trial Leg 1, Leg Device, purge flow 1.5 LPM, flow rate 1500 cc, 1 ATM, 90 min
# [13] = Trial Leg 2, Leg Device, purge flow 1.5 LPM, flow rate 100 cc, 0.5 ATM, 90 min
# [14] = Trial Leg purge, Leg Device, purge flow 0.5 LPM, flow rate 100 cc, 0.25 ATM, 90 min
# [15] = Trial Toe, Leg Device, purge flow 0.1 LPM, flow rate 100 cc, 0.5 ATM, 90 min
# [16] = Trial d Pressure, Leg Device, purge flow 0.1 LPM, flow rate 100 cc, 0.5 ATM, 45 min
structure (smiles),measurement,setting,value
"[N]=O [gNO, Nitric Oxide]",Reduction of bioburden,[1],nearly completely eradicated
same,Reduction of bioburden,[2],nearly completely eradicated
same,Reduction of bioburden,[3],nearly completely eradicated
same,Reduction of bioburden,[4],5 fold
same,"Colony counts, 1 × 10−5 dilution",S. aureus; [5],0 log CFU
same,"Colony counts, 1 × 10−6 dilution",S. aureus; [5],0 log CFU
same,"Colony counts, 1 × 10−7 dilution",S. aureus; [5],0 log CFU
same,"Colony counts, 1 × 10−5 dilution",S. aureus; [6],0 log CFU
same,"Colony counts, 1 × 10−6 dilution",S. aureus; [6],0 log CFU
same,"Colony counts, 1 × 10−7 dilution",S. aureus; [6],0 log CFU
same,"Colony counts, 1 × 10−2 dilution",S. aureus; [7],0 log CFU
same,"Colony counts, 1 × 10−3 dilution",S. aureus; [7],0 log CFU
same,"Colony counts, 1 × 10−4 dilution",S. aureus; [7],0 log CFU
same,"Colony counts, 1 × 10−5 dilution",S. aureus; [7],0 log CFU
same,"Colony counts, 1 × 10−6 dilution",S. aureus; [7],0 log CFU
same,"Colony counts, 1 × 10−7 dilution",S. aureus; [7],0 log CFU
same,"Colony counts, 0 (no dilution)",S. aureus; [8],0 log CFU
same,"Colony counts, 1 × 10−1 dilution",S. aureus; [8],0 log CFU
same,"Colony counts, 1 × 10−2 dilution",S. aureus; [8],0 log CFU
same,"Colony counts, 1 × 10−3 dilution",S. aureus; [8],0 log CFU
same,"Colony counts, 1 × 10−4 dilution",S. aureus; [8],0 log CFU
same,"Colony counts, 1 × 10−5 dilution",S. aureus; [8],0 log CFU
same,"Colony counts, 1 × 10−6 dilution",S. aureus; [8],0 log CFU
same,"Colony counts, 1 × 10−7 dilution",S. aureus; [8],0 log CFU
same,"Colony counts, 0 (no dilution)",S. aureus; [9],TNTC
same,"Colony counts, 1 × 10−1 dilution",S. aureus; [9],TNTC
same,"Colony counts, 1 × 10−2 dilution",S. aureus; [9],TNTC
same,"Colony counts, 0 (no dilution)",S. aureus; [10],0 log CFU
same,"Colony counts, 1 × 10−1 dilution",S. aureus; [10],0 log CFU
same,"Colony counts, 1 × 10−2 dilution",S. aureus; [10],0 log CFU
same,"Colony counts, 1 × 10−3 dilution",S. aureus; [10],0 log CFU
same,"Colony counts, 1 × 10−4 dilution",S. aureus; [10],0 log CFU
same,"Colony counts, 1 × 10−5 dilution",S. aureus; [10],0 log CFU
same,"Colony counts, 1 × 10−6 dilution",S. aureus; [10],0 log CFU
same,"Colony counts, 1 × 10−7 dilution",S. aureus; [10],0 log CFU
same,"Colony counts, 0 (no dilution)",S. aureus; [11],0 log CFU
same,"Colony counts, 1 × 10−1 dilution",S. aureus; [11],0 log CFU
same,"Colony counts, 1 × 10−2 dilution",S. aureus; [11],0 log CFU
same,"Colony counts, 1 × 10−3 dilution",S. aureus; [11],0 log CFU
same,"Colony counts, 1 × 10−4 dilution",S. aureus; [11],0 log CFU
same,"Colony counts, 1 × 10−5 dilution",S. aureus; [11],0 log CFU
same,"Colony counts, 1 × 10−6 dilution",S. aureus; [11],0 log CFU
same,"Colony counts, 1 × 10−7 dilution",S. aureus; [11],0 log CFU
same,"Colony counts, 0 (no dilution)",S. aureus; [12],0 log CFU
same,"Colony counts, 1 × 10−1 dilution",S. aureus; [12],0 log CFU
same,"Colony counts, 1 × 10−2 dilution",S. aureus; [12],0 log CFU
same,"Colony counts, 1 × 10−3 dilution",S. aureus; [12],0 log CFU
same,"Colony counts, 1 × 10−4 dilution",S. aureus; [12],0 log CFU
same,"Colony counts, 1 × 10−5 dilution",S. aureus; [12],0 log CFU
same,"Colony counts, 1 × 10−6 dilution",S. aureus; [12],0 log CFU
same,"Colony counts, 1 × 10−7 dilution",S. aureus; [12],0 log CFU
same,"Colony counts, 0 (no dilution)",S. aureus; [13],0 log CFU
same,"Colony counts, 1 × 10−1 dilution",S. aureus; [13],0 log CFU
same,"Colony counts, 1 × 10−2 dilution",S. aureus; [13],0 log CFU
same,"Colony counts, 1 × 10−3 dilution",S. aureus; [13],0 log CFU
same,"Colony counts, 1 × 10−4 dilution",S. aureus; [13],0 log CFU
same,"Colony counts, 1 × 10−5 dilution",S. aureus; [13],0 log CFU
same,"Colony counts, 1 × 10−6 dilution",S. aureus; [13],0 log CFU
same,"Colony counts, 1 × 10−7 dilution",S. aureus; [13],0 log CFU
same,"Colony counts, 0 (no dilution)",S. aureus; [14],0 log CFU
same,"Colony counts, 1 × 10−1 dilution",S. aureus; [14],0 log CFU
same,"Colony counts, 1 × 10−2 dilution",S. aureus; [14],0 log CFU
same,"Colony counts, 1 × 10−3 dilution",S. aureus; [14],0 log CFU
same,"Colony counts, 1 × 10−4 dilution",S. aureus; [14],0 log CFU
same,"Colony counts, 0 (no dilution)",S. aureus; [15],0 log CFU
same,"Colony counts, 1 × 10−1 dilution",S. aureus; [15],0 log CFU
same,"Colony counts, 1 × 10−2 dilution",S. aureus; [15],0 log CFU
same,"Colony counts, 1 × 10−3 dilution",S. aureus; [15],0 log CFU
same,"Colony counts, 1 × 10−4 dilution",S. aureus; [15],0 log CFU
same,"Colony counts, 1 × 10−5 dilution",S. aureus; [15],0 log CFU
same,"Colony counts, 1 × 10−6 dilution",S. aureus; [15],0 log CFU
same,"Colony counts, 1 × 10−7 dilution",S. aureus; [15],0 log CFU
same,"Colony counts, 0 (no dilution)",S. aureus; [16],TNTC
same,"Colony counts, 1 × 10−1 dilution",S. aureus; [16],TNTC
same,"Colony counts, 1 × 10−2 dilution",S. aureus; [16],TNTC
same,"Colony counts, 1 × 10−3 dilution",S. aureus; [16],TNTC
same,Reduction of bioburden (summary of Table 1),"S. aureus; pressures as low as about 0.15 ATM (2.2 psi), exposure times of about 105 minutes",total kill
same,% Viability,cells; control = 100,44.7% and 44.2% and 39.9%
same,Cell viability,cells; summary of Table 2,40%-50%
